Structures are written as SMILES. Where only a bound is given, the exact number is not on record here.

The values that follow come from patent US10052331B2, “3-(3H-imidazo[4,5-C]pyridin-2-yl)-1H-pyrazolo[3,4-C]pyridine and therapeutic uses thereof” (Samumed, LLC, priority 2014, dated 2018).

The subject of assay [1] is primary human fibroblasts derived from IPF patients (LL29 cells). The experiment in a line: Inhibition of fibrotic process: αSMA staining in TGF-β1-treated primary human fibroblasts from IPF patients (LL29 cells). It counts as cell-based. The settings on record: Fibroblast, 96 h, LL29 cells treated with TGF-β1 (20 ng/mL), 4 days, 11-point dose-response from 10 μM to 1.87 nM, read-out: Inhibition of fibrosis EC50. The source says: The above synthesized compounds were screened using primary human fibroblasts (derived from IPF patients) treated with TGF-β1 to determine their ability to inhibit the fibrotic process.
Primary human fibroblasts derived from IPF patients (LL29 cells) [^1Xiaoqiu Liu, et. al., “Fibrotic Lung Fibroblasts Show Blunted Inhibition by cAMP Due to Deficient cAMP Response Element-Binding Protein Phosphorylation”, Journal of Pharmacology and Experimental Therapeutics (2005), 315(2), 678-687; ^2Watts, K. L., et. al., “RhoA signaling modulates cyclin D1 expression in human lung fibroblasts; implications for idiopathic pulmonary fibrosis”, Respiratory Research (2006), 7(1), 88] were obtained from American Type Culture Collection (ATCC) and expanded in F12 medium supplemented with 15% Fetal Bovine Serum and Penicillin/Streptomycin.
Each compound was dissolved in DMSO as a 10 mM stock and used to prepare compound source plates. Serial dilution (1:2, 11-point dose-response curves from 10 μM to 1.87 nM) and compound transfer was performed using the ECHO 550 (Labcyte, Sunnyvale, Calif.) into 384-well clear bottom assay plates (Greiner Bio-One) with appropriate DMSO backfill for a final DMSO concentration of 0.1%. LL29 cells were plated at 1,500 cells/well in 80 μl/well F12 medium supplemented with 1% Fetal Bovine Serum. One hour after addition of the cells, TGF-β1 (Peprotech; 20 ng/mL) was added to the plates to induce fibrosis (ref. 1 and 2 above). Wells treated with TGF-β1 and containing DMSO were used as controls. Cells were incubated at 37° C. and 5% CO2 for 4 days. Following incubation for 4 days, SYTOX green nucleic acid stain (Life Technologies [Thermo Fisher Scientific]) was added to the wells at a final concentration of 1 uM and incubated at room temperature for 30 min. Cells were then fixed using 4% formaldehyde (Electron Microscopy Sciences), washed 3 times with PBS followed by blocking and permeabilization using 3% Bovine Serum Albumin (BSA; Sigma) and 0.3% Triton X-100 (Sigma) in PBS. Cells were then stained with antibody specific to α-smooth muscle actin (αSMA; Abcam) (ref. 1 and 2 above) in 3% Bovine Serum Albumin (BSA; Sigma) and 0.3% Triton X-100 (Sigma) in PBS, and incubated overnight at 4° C. Cells were then washed 3 times with PBS, followed by incubation with Alexa Flor-647 conjugated secondary antibody (Life Technologies [Thermo Fisher Scientific]) and DAPI at room temperature for 1 hour. Cells were then washed 3 times with PBS and plates were sealed for imaging. αSMA staining was imaged by excitation at 630 nm and emission at 665 nm and quantified using the Compartmental Analysis program on the CellInsight CX5 (Thermo Scientific). Dead or apoptotic cells were excluded from analysis based on positive SYTOX green staining. % of total cells positive for αSMA were counted in each well and normalized to the average of 11 wells treated with TGF-β1 on the same plate using Dotmatics' Studies Software. The normalized averages (fold change over untreated) of 3 replicate wells for each compound concentration were used to create dose-responses curves and EC50 values were calculated using non-linear regression curve fit in the Dotmatics' Studies Software. The EC50 values are reported.

Assay [2] deals with Wnt activity (Wnt-responsive Sp5 promoter-luciferase reporter in SW480 cells). Nature of the assay: Wnt activity screening assay: Sp5-Luc reporter gene in SW480 colon carcinoma cells. Type of assay: cell-based. Particulars: Homo sapiens. From the text:
The screening assay for Wnt activity is described as follows. Reporter cell lines can be generated by stably transducing cancer cell lines (e.g., colon cancer) or primary cells (e.g., IEC-6 intestinal cells) with a lentiviral construct that includes a Wnt-responsive promoter driving expression of the firefly luciferase gene.
SW480 colon carcinoma cells were transduced with a lentiviral vector expressing luciferase with a human Sp5 promoter consisting of a sequence of eight TCF/LEF binding sites. SW480 cells stably expressing the Sp5-Luc reporter gene and a hygromycin resistance gene were selected by treatment with 150 μg/ml of hygromycin for 7 days. These stably transduced SW480 cells were expanded in cell culture and used for all further screening activities. For Sp5-Luc reporter gene assays, the cells were plated at 10,000 cells/well in 96-well plates with growth medium containing 10% fetal calf serum and incubated overnight at 37° C. and 5% CO2. Each compound was dissolved in DMSO as a 10 mM stock in standard j-vials and used to prepare compound source plates in dose-response format with 3-fold serial dilutions and a 10 mM top concentration. Compound transfer from serially diluted source plates to assay plates containing the cells was accomplished using a pintool (Multimek 96, Beckman equipped with V&P Scientific FP1S50H pins) based liquid handling protocol. This protocol used a slotted pin to transfer 50 nl of compound from a source plate well to an assay plate well containing 50 μl of cells in growth medium. […] Control wells received 50 nl of DMSO treatment for normalization and calculating IC50 values. The treated cells were incubated at 37° C. and 5% CO2 for an additional forty-two hours. Following incubation, the growth medium was removed and 50 μl of BrightGlo luminescence reagent (Promega) was added to each well of the 96-well assay plates. The plates were placed on an orbital shaker for 5 min and then luminescence was quantified on the Victor3 (Perkin Elmer) plate reader. Readings were normalized to DMSO only treated cells, and normalized activities were utilized for IC50 calculations using the dose-response log (inhibitor) vs. response-variable slope (four parameters) nonlinear regression feature available in GraphPad Prism 5.0 or 6.0.
(Reporter assays use an easily measured gene product as a stand-in for the process of interest.)

As usually defined, the EC50 is the concentration giving half of the maximal effect. What is called IC50 is the point on the concentration scale where inhibition reaches its midpoint. For the molecule `CN1CCN(c2cncc3[nH]c(-c4n[nH]c5cnc(-c6cncc(CN7CCCCC7)c6)cc45)nc23)CC1` [Compound 223, 3-(7-(4-Methylpiperazin-1-yl)-3H-imidazo[4,5-c]pyridin-2-yl)-5-(5-(piperidin-1-ylmethyl)pyridin-3-yl)-1H-pyrazolo[3,4-c]pyridine], in assay [1], the concentration for a half-maximal effect (EC50) is no less than 9990 nM. The IC50 in assay [2] came to 1380 nM.
Consider `c1cncc(-c2cncc3[nH]c(-c4n[nH]c5cnc(-c6cncc(CN7CCCCC7)c6)cc45)nc23)c1` [Compound 93, 5-(5-(Piperidin-1-ylmethyl)pyridin-3-yl)-3-(7-(pyridin-3-yl)-3H-imidazo[4,5-c]pyridin-2-yl)-1H-pyrazolo[3,4-c]pyridine], for which the EC50 in assay [1] was no less than 9990 nM. This molecule also had an IC50 in assay [2] of 2850 nM.
The like results for `Nc1cncc(-c2cc3c(-c4nc5c(-c6ccccc6F)cncc5[nH]4)n[nH]c3cn2)c1` [Compound 55, 5-(3-(7-(2-Fluorophenyl)-3H-imidazo[4,5-c]pyridin-2-yl)-1H-pyrazolo[3,4-c]pyridin-5-yl)pyridin-3-amine] were, in that order, no more than 9 nM and 70.4 nM.
As to `CCCCC(=O)Nc1cncc(-c2cc3c(-c4nc5c(-c6cccc(F)c6)cncc5[nH]4)n[nH]c3cn2)c1` [Compound 18, N-(5-(3-(7-(3-Fluorophenyl)-3H-imidazo[4,5-c]pyridin-2-yl)-1H-pyrazolo[3,4-c]pyridin-5-yl)pyridin-3-yl)pentanamide], the EC50 in assay [1] came out at 143 nM. In addition, in assay [2], half-maximal inhibition (IC50) required 29.4 nM.
Taken in the same sequence, the figures for `CC(C)(C)C(=O)Nc1cncc(-c2cc3c(-c4nc5c(-c6cccc(F)c6)cncc5[nH]4)n[nH]c3cn2)c1` [Compound 8, N-(5-(3-(7-(3-Fluorophenyl)-3H-imidazo[4,5-c]pyridin-2-yl)-1H-pyrazolo[3,4-c]pyridin-5-yl)pyridin-3-yl)pivalamide] were 47 nM and 41.1 nM.
As for `CS(=O)(=O)NCc1cc(F)cc(-c2cncc3[nH]c(-c4n[nH]c5cnc(-c6cncc(NC(=O)c7ccccc7)c6)cc45)nc23)c1` [Compound 401, N-(5-(3-(7-(3-Fluoro-5-(methylsulfonamidomethyl)phenyl)-3H-imidazo[4,5-c]pyridin-2-yl)-1H-pyrazolo[3,4-c]pyridin-5-yl)pyridin-3-yl)benzamide], the EC50 in assay [1] is no less than 9990 nM. 774 nM corresponded to half-maximal inhibition in assay [2] (IC50).
Turning to `c1ccc(-c2cncc3[nH]c(-c4n[nH]c5cnc(-c6cncc(CNCC7CCCC7)c6)cc45)nc23)nc1` [Compound 154, 1-Cyclopentyl-N-((5-(3-(7-(pyridin-2-yl)-3H-imidazo[4,5-c]pyridin-2-yl)-1H-pyrazolo[3,4-c]pyridin-5-yl)pyridin-3-yl)methyl)methanamine], in assay [1], the concentration for a half-maximal effect (EC50) turned out to be 649 nM. In assay [2], this molecule gave an IC50 of 945 nM.
For the molecule `O=C(Nc1cncc(-c2cc3c(-c4nc5c(-c6ccccc6F)cncc5[nH]4)n[nH]c3cn2)c1)C1CCC1` [Compound 72, N-(5-(3-(7-(2-Fluorophenyl)-3H-imidazo[4,5-c]pyridin-2-yl)-1H-pyrazolo[3,4-c]pyridin-5-yl)pyridin-3-yl)cyclobutanecarboxamide], the EC50 in assay [1] is no more than 9 nM. This molecule returned an IC50 in assay [2] of 144 nM.
For the molecule `Fc1cccc(-c2cncc3[nH]c(-c4n[nH]c5cnc(C6CCNCC6)cc45)nc23)c1` [Compound 885, 3-(7-(3-Fluorophenyl)-3H-imidazo[4,5-c]pyridin-2-yl)-5-(piperidin-4-yl)-1H-pyrazolo[3,4-c]pyridine], the EC50 in assay [1] was no less than 9990 nM. This molecule had an IC50 in assay [2] greater than 10000 nM.
Taken in the same sequence, the figures for `Cc1ccncc1-c1cc2c(-c3nc4c(-c5cc(F)cc(CNS(C)(=O)=O)c5)cncc4[nH]3)n[nH]c2cn1` [Compound 395, N-(3-Fluoro-5-(2-(5-(4-methylpyridin-3-yl)-1H-pyrazolo[3,4-c]pyridin-3-yl)-3H-imidazo[4,5-c]pyridin-7-yl)benzyl)methanesulfonamide] were no more than 9 nM and 46.7 nM.
